# In US10912816B2, “Obesity-related genes and their proteins and uses thereof” (THE TRUSTEES OF COLUMBIA UNIVERSITY IN THE CITY OF NEW YORK, priority 2010, dated 2021):
# Entries after “also recorded” stand apart in the source; their conditions may differ.
# Experiments:
# [1] = Conditioned taste aversion testing; type: in vivo, adult female Wistar rats; conditions: ip injection on test days 1-3; spexin 70 μg/kg, LiCl 63.5 mg/kg body weight (FIG. 29)
# Description: After 20 hrs of water deprivation, rats were offered a single bottle containing 0.1% sodium saccharin for 20 min, followed by an ip injection of physiological saline (n=6), 70 μg spexin/kg body weight (n=6), or 63.5 mg LiCl/kg body weight (0.15M LiCl) (n=5) after an additional 20 min. Injections were administered on test days 1-3, with no injection on the final test day. […] Data points represent mean±SEM.
# Conditioned taste aversion studies were conducted using adult female Wistar rats according to established protocols [P27-P29]. For training, rats were water but not food deprived for 20 hrs (1800-1400 hrs the following day), then offered a single bottle of water ad libitum for 20 min. Training sessions took place on 2 days of each week, spaced at 3-4 day intervals, to allow recovery of normal food intake and body weight. A total of 7 training sessions were conducted, by which time all animals had learned to drink promptly when fluid was offered. Testing was initiated on the same schedule, with 0.1% sodium saccharin rather than water as the available liquid. On test days 1-3 groups of rats were injected ip with either physiological saline, spexin (70 μg/kg body weight), or LiCl (63.5 mg/kg body weight). All groups experienced their first saccharin exposure and injection on test day 1. […]
# [2] = Body weight and 24 hour feeding behavior in DIO rats (BioDaq Food Intake Monitoring System); type: in vivo; conditions: DIO rats on treatment
# Description: Obese adult female Wistar rats (n=4/group) received single daily injections (sc) of vehicle or Spexin (35 μg/kg BW). Body weights and food intake were measured daily. Average daily food intake (FIG. 22A) and body weight (FIG. 22B) for each group was recorded for each 24 hr period. 24 hr food intake was reduced in the Spexin treated animals (dark circles) by Day 3. […] This effect persisted well beyond the immediate treatment period, and was apparent out to Day 7.
# A more detailed analysis of hourly feeding behaviors, including 1) number of “meals” during a 24 hr light/dark cycle, and 2) meal duration and incidence were continuously recorded by a BioDaq Food Intake Monitoring System (FIG. 23). Pre-treatment baselines (FIG. 23A), on-treatment responses (FIG. 23B), early (FIG. 23C) and late (FIG. 23D) “wash-out” periods are presented. […]
# Obese (DIO) adult female Wistar rats (n=4/group) received single daily injections (sc) of vehicle or Spexin (35 μg/kg BW). Individual body weights and food intake were measured and recorded daily, and the average food intake and body weight for each group was recorded for each 24 hour period. For a more detailed analysis of hourly feeding behaviors, number of feeding events or “meals” during a 24 hour light/dark cycle, and frequency and durations of individual meals were continuously recorded via a BioDaq Food Intake Monitoring System (New Brunswick, N.J.).
SMILES,total amount of 0.1% saccharin solution consumed vs saline [1],"toxicity, nausea or taste aversion behaviors [2]","toxicity, nausea or taste aversion behaviors ([2]; listed as spexin)"
"[Cl-].[Li+] [LiCl, reference compound]",significantly less,,
"CSCC[C@H](NC(=O)[C@H](C)NC(=O)[C@H](CCC(N)=O)NC(=O)[C@@H]1CCCN1C(=O)[C@@H](NC(=O)[C@H](Cc1c[nH]c2ccccc12)NC(=O)[C@@H](N)CC(N)=O)[C@@H](C)O)C(=O)N[C@@H](CC(C)C)C(=O)N[C@@H](Cc1ccc(O)cc1)C(=O)N[C@@H](CC(C)C)C(=O)N[C@@H](CCCCN)C(=O)NCC(=O)N[C@@H](C)C(=O)N[C@@H](CCC(N)=O)C(N)=O [Spexin, NWTPQAMLYLKGAQ-amide]",No significant differences; also recorded: no signs of taste aversion were detected,No indications of nausea or taste aversion behaviors; also recorded: No overt signs of Spexin-induced toxic effects,did not exhibit overt toxicity or nausea
